{"source": "patent US20040018533A1", "about": "“Diagnosing predisposition to fat deposition and therapeutic methods for reducing fat deposition and treatment of associated conditions” (priority 2002, published 2004)", "origin": "cited, not measured here", "biological_target": "P2X4 (Homo sapiens, UniProt Q99571)", "sequence (Q99571 whole entry, species assumed)": "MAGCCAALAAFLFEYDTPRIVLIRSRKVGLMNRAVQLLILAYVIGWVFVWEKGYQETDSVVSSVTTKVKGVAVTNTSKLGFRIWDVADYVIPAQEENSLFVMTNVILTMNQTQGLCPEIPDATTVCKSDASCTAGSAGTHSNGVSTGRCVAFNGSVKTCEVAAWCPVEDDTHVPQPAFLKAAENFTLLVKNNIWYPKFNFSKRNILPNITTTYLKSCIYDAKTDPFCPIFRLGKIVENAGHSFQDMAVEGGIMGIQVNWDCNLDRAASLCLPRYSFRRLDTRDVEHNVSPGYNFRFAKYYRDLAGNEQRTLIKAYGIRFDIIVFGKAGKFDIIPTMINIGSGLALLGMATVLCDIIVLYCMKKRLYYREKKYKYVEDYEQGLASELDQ", "conditions": "Xenopus oocytes"}
{"smiles": "CCO", "note": "[ethanol]", "values": [{"measurement": "effect on P2X4 function", "value": "inhibits P2X4 function"}]}
